Measured values published in patent US11491244B2, “Labeled fluorocarbon agents for positron emission tomography imaging” (McMaster University, priority 2017, dated 2022).
“Also recorded” adds a separate entry of the source.

How the values were obtained:
[1] = Solubility of the fluorinated product in fluorocarbons; assay type: physicochemical
[2] = neat perfluorocarbon; cited from earlier work
[3] = Stability of [18F]CF3(CF2)7(CH2)3F in water, with and without sonication; assay type: physicochemical
Description: [^18F]CF3(CF2)7(CH2)3F (125 MBq) in FC-72 (2 mL) was separated into 4 equal samples, and water (0.5 mL) was added to each with stirring. At 0.5, 1, 2 and 4 h, the water layer was removed and the amount of activity measured. In addition, [^18F]CF3(CF2)7(CH2)3F (28 MBq) in FC-72 (130 μL) and DI water (2 mL) was suspended in ice and sonicated using a Branson, Digital S450D Sonifier (Emerson Canada, Markham, ON, Canada) for 10 min at 10% amplitude, using 1 second on-1 second off pulses. The samples were centrifuged and the activity in the aqueous layers were measured using a gamma counter.
The focus shifted to using precursors with a propyl spacer in an attempt to minimize the influence of the electron withdrawing fluorine groups. The mesylate CF3(CF2)7(CH2)3OMs and tosylate CF3(CF2)7(CH2)3OTs were prepared and labelled with [^18F]F^−. The tosylate produced the desired compound (RCY 15%±3; n=5) when the reaction was heated to 75° C. for 30 min. While the overall yield was modest, the product could be easily isolated and separated from impurities by liquid-liquid extraction using FC-72 and water.

FCCC(F)(F)C(F)(F)C(F)(F)C(F)(F)C(F)(F)C(F)(F)C(F)(F)C(F)(F)F [CF3(CF2)7(CH2)2F]
Solubility in FCs [1]: good solubility in FCs

FC(F)(F)C(F)(F)C(F)(F)C(F)(F)C(F)(F)C(F)(F)F [PFH, perfluorohexane]
Water Solubility 25° C. [2]: Insoluble
Water Solubility 25° C. (bound) [2]: (<25 ppm)

FC(F)(F)C(F)(F)C(F)(F)C(F)(F)C(F)(F)C(F)(F)C(F)(F)C(F)(F)Br [PFOB, perfluorooctylbromide]
Water Solubility 25° C. [2]: Insoluble

FC(F)(F)C(F)(F)C(F)(F)C(F)(F)C(F)(F)C(F)(F)C(F)(F)C(F)(F)CCC[18F] [[^18F]CF3(CF2)7(CH2)3F]
Activity in the aqueous layer post-sonication ([3]; FC-72 and DI water, sonicated without stabilizing surfactants): no activity was found in the aqueous layer
Free [18F]F− by radioHPLC and radioTLC ([3]; FC-72 solution extracted with water periodically over 4 h): no evidence of free [^18F]F^−
Loss of fluoride in vitro / in solution ([3]; left in solution over the timeframe of the imaging studies): no signs of loss of fluoride; also recorded: stable with respect to loss of fluoride in vitro
